Converted amounts (≈) assume the structure as drawn. Where two headings read alike, the source gives them in different places.
Key:
[1] = Equilibrium solubility of crisaborole in solvents by HPLC; type: physicochemical; details: thermodynamic from solid, read-out: Solubity by HPLC
Experimental: (§1) One of the key aspects encountered in reformulating crisaborole was that the active agent be fully dissolved within its solvent. A selection criterion of greater than 10% w/w crisaborole solubility was used to select solvents capable of carrying at least 1% crisaborole in a final drug product formulation, assuming the drug product contained 10% solvent. The solubility of crisaborole in ten solvents was evaluated to identify those with crisaborole solubility greater than 10% w/w by visual assessment. The equilibrium solubility of the best solvents was subsequently verified by HPLC.

[2] = Solubility of crisaborole in solvents by visual assessment; type: physicochemical
Experimental: as §1

N#Cc1ccc(Oc2ccc3c(c2)COB3O)cc1 [Crisaborole Form II, 5-(4-cyanophenoxy)-1,3-dihydro-1-hydroxy-2,1-benzoxaborole]
solubility ([1]; oil or lipid, in Ethylhexyl Hydroxystearate): 21 mg/mL (≈ 83.6 mM)
solubility ([1]; oil or lipid, in Oleyl Alcohol, NF): 33 mg/mL (≈ 131 mM)
solubility ([1]; organic solvent or mixture, in Hexylene Glycol, NF): 356 mg/mL (≈ 1420 mM)
solubility ([1]; organic solvent or mixture, in Polyethylene Glycol (PEG) 400, USP): 164 mg/mL (≈ 653 mM)
solubility ([1]; organic solvent or mixture, in Propylene Carbonate, NF): 96 mg/mL (≈ 382 mM)
solubility ([1]; organic solvent or mixture, in Propylene Glycol, USP): 274 mg/mL (≈ 1090 mM)
solubility ([1]; organic solvent or mixture, in Transcutol P, NF): 21.2 mg/mL (≈ 84.4 mM)
Visual Solubity ([2]; in Diisopropyl Adipate): 7.7% w/w
Visual Solubity ([2]; in Ethylhexyl Hydroxystearate): 1.6% w/w
Visual Solubity ([2]; in Hexylene Glycol, NF): 25.9% w/w
Visual Solubity ([2]; in Isopropyl Myristate, NF): 0.6% w/w
Visual Solubity ([2]; in Oleic Acid, NF): <0.1% w/w
Visual Solubity ([2]; in Oleyl Alcohol, NF): 2.3% w/w
Visual Solubity ([2]; in Polyethylene Glycol (PEG) 400, USP): 15.0% w/w
Visual Solubity ([2]; in Propylene Carbonate, NF): 9.9% w/w
Visual Solubity ([2]; in Propylene Glycol, USP): 24.0% w/w
Visual Solubity ([2]; in Transcutol P, NF): 28.6% w/w
